Measured values: patent US20050085546A1, “Method of inducing differentiation of dendritic cells” (Council of Scientific & Industrial Research, priority 2003, published 2005)

Tests used:
BM leukocyte precursors [1] = experiment: Viability of stimulated BM leukocyte precursor cultures; assay type: cell-based, BALB/c mouse; design: Viability, % of Viable cells: reference not given here
Procedure: (§1) The fine suspension obtained above was transferred into a 50 ml sterile centrifuge tube and centrifuged for 10 minutes at 1200 rpm. […] The pellets were washed using HBSS wash buffer and then centrifuged again for 10 minutes at 1200 rpm. This process was repeated for one more time. […] This suspension was then finally passed through a MACS (Magnetic Activated Cell Sorting) column to get essentially and predominately leukocyte precursors.

[2] = test system: osteoclast precursors (murine bone marrow cells, M-CSF + RANKL); experiment: In vitro osteoclastogenesis assay (TRAP staining); assay type: cell-based, Balb/c mice; conditions: M-CSF + RANKL + compound 5.0 μg/ml, 6 days
BM leukocyte precursors [3] = experiment: Differentiation of dendritic cells from bone marrow leukocyte precursors; cell surface marker expression by flow cytometry; assay type: cell-based, BALB/c mouse; conditions: for differentiation of dendritic cells (in words): from BM precursors
Procedure: Cells were stained for the surface levels of indicated markers. Plates A-D represent surface levels of CD80, CD54, CD11c and H-2D (MHC class 1), respectively. […] The Green line represents staining of stimulated cells while the black line depicts staining of unstimulated cells.
as §1
In order to evaluate the upregulation of various cell surface markers associated with Dendritic cells, flow cytometry on the cells stimulated with GM-CSF or the compound was carried out using fluorescent labeled antibodies to various molecules (CD11c, I-A^d, CD80, CD86, H2-D^d, CD54, CD40).
The hind limbs of the mouse were removed carefully and placed in a Petri dish with HBSS (Hanks Balanced Saline Solution) wash buffer. The tibias and femurs were cleared of all surrounding and attached tissues. This was followed by chipping the ends of bones. The bone marrow was flushed out by injecting HBSS solution into the bone with the help of a hypodermal syringe (No. 26 gauge). The bone marrow was finally made into a fine suspension by syringing in and out of the fluid several times using an 18 gauge syringe needle.

[4] = test system: osteoclast precursors (murine bone marrow cells, M-CSF + RANKL); experiment: In vitro osteoclastogenesis assay (TRAP staining); assay type: cell-based, Balb/c mice; conditions: for % inhibition of osteoclast formation / Number of TRAP-positive multinuclear cells/well of 96 well plate (Mean ± SEM): 6 days
Excerpt: Culture of murine bone marrow cells in the presence of M-CSF and RANKL induces the formation of osteoclasts, which were detected as TRAP-positive cells. […] Values given are the mean±SD of five separate experiments.
For in vitro osteoclastogenesis bone marrow cells were isolated from 5- to 8-wk-old Balb/c mice. Mice were sacrificed by cervical dislocation and femora and tibiae were aseptically removed and dissected free of adherent soft tissues. The bone ends were cut, and the marrow cavity was flushed out with medium MEM from one end of the bone using a sterile 21-gauge needle. The bone marrow suspension was carefully agitated with a plastic Pasteur pipette to obtain a single-cell suspension. The cells were washed twice and resuspended (10^6 cells/ml) in aMEM containing 10% FBS. […] After 24 h, nonadherent cells were harvested and layered on a Ficoll-Hypaque gradient. Cells at the gradient interface were collected, washed and resuspended (5×10^5/ml) in AMEM containing 10% FBS. In this study, we called these stromal cell-free, M-CSF-dependent, nonadherent cells as osteoclast precursors. These osteoclast precursors were added to 96-well plates (100 μl/well) containing plastic coverslips. Each well received further 100 μl of medium containing M-CSF (30 ng/ml), RANKL (30 ng/ml) without or with various concentrations of purified compound. Cultures were fed every 2-3 days and after incubation for 6 days osteoclast formation was evaluated by tartrate-resistant acid phosphatase (TRAP) staining. The number of TRAP-positive multinucleated cells (MNCs) containing 3 or more nuclei was scored.
TRAP is preferentially expressed at high levels in osteoclast and is considered, especially in the mouse, to be an osteoclast marker. Cytochemical staining for TRAP is widely used for identifying the osteoclasts in vivo and in vitro. It is claimed to be specific for osteoclasts in bone. After incubation, cells on cover slips were washed in PBS, fixed in 10% formalin for 10 min and stained for acid phosphatase in the presence of 0.05 M sodium tartrate. The substrate used was napthol AS-BI phosphate. Only those cells that were strongly TRAP-positive (dark red) counted by light microscopy.

[5] = M-CSF + RANKL + compound 0.5 μg/ml
[6] = M-CSF + RANKL + compound 1.5 μg/ml
[7] = M-CSF + RANKL + compound 3.0 μg/ml
[8] = M-CSF + RANKL + compound 5.0 μg/ml
[9] = Table B, concentration not given
[10] = Table A, 15 ng/ml GM-CSF or 50 micro gram per ml synthetic compound, 48 h

Compound: O=C([O-])CC[C@H](NS(=O)(=O)[O-])C(=O)[O-].O=C([O-])CC[C@H](NS(=O)(=O)[O-])C(=O)[O-].[Ca+2].[Ca+2].[Ca+2] [compound 1, L-glutamyl-N-sulphonic acid, Ca salt]
- viability of the cultures at the end of the incubation period (BM leukocyte precursors [1]; 200 mM, 48 h): more than 99%
- viability of the cultures at the end of the incubation period (BM leukocyte precursors [1]; 50 micro gram per ml, 48 h): > 99%
- Number of TRAP-positive multinuclear cells/well of 96 well plate (Mean ± SEM) [2]: 2.83 ± 1.05 cells/well
- concentration of maximum up regulation of cell surface densities of CD11c, CD80, CD54 (BM leukocyte precursors [3]; BM leukocyte precursors incubated with different concentrations): 200 mM
- differentiation of dendritic cells (in words) (BM leukocyte precursors [3]; listed as Compound I): Induces Differentiation of Dendritic Cells
- differentiation of dendritic cells (in words) (BM leukocyte precursors [3]; listed as the compound): induces the differentiation of DCs from BM precursors
- % inhibition of osteoclast formation [4, 5]: 21.01%
- Number of TRAP-positive multinuclear cells/well of 96 well plate (Mean ± SEM) [4, 5]: 109.67 ± 9.79 cells/well
- % inhibition of osteoclast formation [4, 6]: 62.19%
- Number of TRAP-positive multinuclear cells/well of 96 well plate (Mean ± SEM) [4, 6]: 52.17 ± 6.42 cells/well
- % inhibition of osteoclast formation [4, 7]: 89.36%
- Number of TRAP-positive multinuclear cells/well of 96 well plate (Mean ± SEM) [4, 7]: 14.67 ± 1.98 cells/well
- % inhibition of osteoclast formation [4, 8]: 97.94%
- inhibition in the number of osteoclast cells generated (in words) ([4]; increasing dose): dose dependent inhibition

Compound: O=C(O)CC[C@H](NS(=O)(=O)O)C(=O)O [compound 3, L-glutamyl-N-sulphonic acid]
- Viability, % of Viable cells (BM leukocyte precursors [1]; [9]): 115%
- Number of TRAP-positive multinuclear cells/well of 96 well plate (Mean ± SEM) [2]: 110.00 ± 6.72 cells/well
- Number of TRAP-positive multinuclear cells/well of 96 well plate (Mean ± SEM) [4, 5]: 154.67 ± 8.43 cells/well
- Number of TRAP-positive multinuclear cells/well of 96 well plate (Mean ± SEM) [4, 6]: 150.33 ± 8.82 cells/well
- % inhibition of osteoclast formation [4, 7]: 23.23%
- Number of TRAP-positive multinuclear cells/well of 96 well plate (Mean ± SEM) [4, 7]: 112.67 ± 8.63 cells/well
- % inhibition of osteoclast formation [4, 8]: 25.08%

Compound: GM-CSF: the growth factor that is conventionally used to generate DCs in vitro
- Viability, % of Viable cells (BM leukocyte precursors [1]; [10]): 180%
- Viability, % of Viable cells (BM leukocyte precursors [1]; [9]): 180%
- Fold increase in Relative MFI over unstimulated control, CD11c (BM leukocyte precursors [3]; [10]): 5.0 fold
- Fold increase in Relative MFI over unstimulated control, CD54 (BM leukocyte precursors [3]; [10]): 4.0 fold
- Fold increase in Relative MFI over unstimulated control, CD80 (BM leukocyte precursors [3]; [10]): 3.3 fold
- Fold increase in Relative MFI over unstimulated control, H-2D^d (BM leukocyte precursors [3]; [10]): 2.0 fold
- Fold increase in Relative MFI over unstimulated control, CD11c (BM leukocyte precursors [3]; [9]): 5.0 fold
- Fold increase in Relative MFI over unstimulated control, CD54 (BM leukocyte precursors [3]; [9]): 4.0 fold
- Fold increase in Relative MFI over unstimulated control, CD80 (BM leukocyte precursors [3]; [9]): 3.3 fold
- Fold increase in Relative MFI over unstimulated control, H-2D^d (BM leukocyte precursors [3]; [9]): 2.0 fold
